Data as given in the NIST ThermoML archive (doi:10.1016/j.fluid.2013.12.024).
Numbers after ± are expanded uncertainties.

Key:
[1] = Crystal; DTA
[2] = Molar enthalpy of transition or fusion; details: Crystal; DSC

Normal melting temperature [1]: 315.67 ± 0.5 °C
Molar enthalpy of transition or fusion [2]: 8.38 ± 0.234 kcal/mol
Structure (SMILES): O=c1c(-c2ccc(O)cc2)coc2cc(O)ccc12 [daidzein]
